From patent publication US20050249743A1, “Isolated peptides which bind to HLA-A24 molecules and uses thereof” (priority 2004, published 2005) come the findings set out here.

For one assay, the target named is T1, HLA-A2402 (Homo sapiens, UniProt P04439, D101N/D140Y/D185E/E176V/E190D/F33S/G103R/G107R/I119L/I121M/I306V/K335N/L105A/L180Q/L300P/N151K/N90K/Q86E/Q94H/R106L/R138H/R89G/T104I/T345S/V100E/W191G/Y123F).
T1 construct: made in house; host or cells: E. coli
The experiment in a line: in vitro folding of recombinant HLA-A2402 with beta2-microglobulin and peptide (tetramer production). It counts as binding. As to conditions: recombinant HLA-A2402 folded in vitro with beta2-microglobulin and peptide. The source says: (§1) Recombinant HLA-A2402 molecules produced in E. coli were folded in vitro with beta2-microglobulin and peptide NYKRCFPVI (SEQ ID NO: 1) from MAGE-4, or peptide LYVDSLFFL (SEQ. ID NO: 2) from PRAME (control) (See Ikeda, et al., Immunity 6:199-208 (1997)), in accordance with Altman, et al., Science 274:94-96 (1996). The peptide of SEQ ID NO: 1 corresponds to amino acids 143-151 of MAGE-4. This specific peptide was selected because it is homologous to the peptide NYKHCFPEI (SEQ ID NO: 3), a MAGE-1 encoded peptide previously shown to be recognized by HLA-A24 restricted T cells. See Fujie, et al., Int. J. Cancer 80(2):169-172 (1999).
The HLA-peptide complexes were then purified by gel filtration, biotinylated and mixed as described in Altman, et al., supra with extraviden-phycoerythrin (PE) for the HLA-A24/MAGE-4 tetramer, or streptavidin-APC for the PRAME control tetramer. Both extravidin-PE and streptavidin-APC are commercially available. The tetramers were then used to label T cells, as described in the next example.

The test system of assay [1] is HLA-A24+ Epstein Barr Virus-transformed B (EBV-B) cells. Nature of the assay: chromium release assay, CTL 13 against peptide pulsed EBV-B cells. It counts as cell-based. The procedure: In this experiment, CTL 13 was tested for specific lytic activity in standard chromium release assays.
In the assay, the targets of CTL 13 were HLA-A24^+ Epstein Barr Virus-transformed B (EBV-B) cells. The EBV-B cells were cultured in IMDM supplemented with 10% fetal calf serum, 0.24 mM L-asparagine, 0.55 mM L-arginine, AAG, 100 U/ml penicillin and 100 μg/ml streptomycin. The EBV-B cells were labeled with ^51Cr for one hour according to standard methods and then incubated for 5 minutes with peptide NYKRCFPVI (SEQ ID NO: 1) (1 μg/ml). The ^51Cr labeled, peptide pulsed EBV-B cells (targets) were then combined with CTL 13 (effector) at effector-to-target ratios shown in FIG. 3A. Chromium release was measured after 4 hours.
In further experiments, the HLA-A24 EBV-B cells were labeled with ^51Cr for one hour according to standard methods and then incubated for 15 minutes with threefold dilutions of the synthetic peptide NYKRCFPVI (SEQ ID NO: 1). CTL 13 was subsequently added at an effector-to-target ratio of 10:1 and chromium release was measured after 4 hours. The concentration of peptide shown in FIG. 3B corresponds to the concentrations during the 4 hour incubation. […] This is in the range of concentration observed for the previously identified antigenic MAGE peptides, for which values ranging from 0.05 to 200 nM have been observed. […]

For assay [2], the target named is Recombinant HLA-A2402 molecules produced in E. coli, folded with beta2-microglobulin (human). The experiment in a line: in vitro folding of recombinant HLA-A2402 with beta2-microglobulin and peptide.
Text: as §1, with “NYKRCFPVI” left out, “LYVDSLFFL” left out, “NYKHCFPEI” left out

Where no end group is shown, it is not given here.

NYKRCFPVI [SEQ ID NO: 1, NYKRCFPVI]: the “formation of HLA-A2402/peptide complexes” value on HLA-A2402 is “successful production of HLA-A2402 and SEQ ID NO: 1 peptide complexes”. Besides, the EC50 in assay [1] (CTL 13, effector-to-target ratio 10:1, chromium release after 4 hours, read-out: peptide concentration giving half maximal lysis of peptide pulsed HLA-A24 target cells) is 8 nM. Moreover, the “lysis of peptide pulsed target cells by CTL 13” value in assay [1] (peptide 1 μg/ml, 5 minutes pulse, chromium release after 4 hours, unpulsed control targets not lysed) was “lysed target cells pulsed with SEQ ID NO: 1 peptide”.

B1: peptide NYKRCFPVI (SEQ ID NO: 1) from MAGE-4 (peptide)
peptide: NYKRCFPVI
notes: Synthetic 9-mer; also called MAGE-4 antigenic peptide; MAGE-4.A24 peptide
Regarding B1, the binding result in assay [2] is “binds”.
